This is an account of results in ChEMBL document CHEMBL4028859, “Inhibition of Calcium Dependent Protein Kinase 1 (CDPK1) by Pyrazolopyrimidine Analogs Decreases Establishment and Reoccurrence of Central Nervous System Disease by Toxoplasma gondii” (J Med Chem, 2017).

Data set [1] in a line: (§1) AUC (infinity) in Swiss albino mouse at 10 mg/kg, po administered as single dose by LC-MS/MS analysis. The data set is classed as ADME, organism-based. Details: dose 10 mg/kg, time infinity, route oral. The settings on record: Swiss albino, in vivo.
Data set [2] is described as follows: (§2) Tmax in Swiss albino mouse at 10 mg/kg, po administered as single dose by LC-MS/MS analysis. The data set is classed as ADME, organism-based. The settings on record: Swiss albino, in vivo.
A short description of data set [3]: (§3) Cmax in Swiss albino mouse at 10 mg/kg, po administered as single dose by LC-MS/MS analysis. The data set is classed as ADME, organism-based. Details: dose 10 mg/kg, route oral. The settings on record: Swiss albino, in vivo.
Data set [4] in a line: Initial concentration in Swiss albino mouse at 3 mg/kg, iv administered as single dose by LC-MS/MS analysis. In kind it is ADME, organism-based. The settings on record: in vivo.
In data set [5] the test system is Mus musculus. Briefly: Oral bioavailability in Swiss albino mouse at 10 mg/kg administered as single dose by LC-MS/MS analysis. The data set is classed as ADME, organism-based. The settings on record: in vivo.
Data set [6] in a line: Apparent permeability from apical to basolateral side in human Caco2 cells at 5 uM by LC-MS/MS analysis. The settings on record: caco-2, 5 µM. The data set is classed as ADME, cell-based.
The nature of data set [7]: (§4) AUClast in Swiss albino mouse at 3 mg/kg, iv administered as single dose by LC-MS/MS analysis. In kind it is ADME, organism-based. Details: dose 3 mg/kg, time 0 - last, route intravenous. The settings on record: Swiss albino, in vivo.
Data set [8] can be described thus: Apparent permeability from basolateral to apical side in human Caco2 cells at 5 uM by LC-MS/MS analysis. The settings on record: caco-2, 5 µM. The data set is classed as ADME, cell-based. (In general: Caco-2 monolayers are a common model of the intestinal barrier.)
A short description of data set [9]: (§5) AUC (infinity) in Swiss albino mouse at 3 mg/kg, iv administered as single dose by LC-MS/MS analysis. The data set is classed as ADME, organism-based. Details: dose 3 mg/kg, time infinity, route intravenous. The settings on record: Swiss albino, in vivo.
Data set [10] can be described thus: (§6) AUClast in Swiss albino mouse at 10 mg/kg, po administered as single dose by LC-MS/MS analysis. The data set is classed as ADME, organism-based. Details: dose 10 mg/kg, route oral, time 0 - last. The settings on record: Swiss albino, in vivo.
Data set [11] is described as follows: (§7) Volume of distribution at steady state in Swiss albino mouse at 3 mg/kg, iv administered as single dose by LC-MS/MS analysis. The settings on record: Swiss albino, in vivo, read-out: Vdss. The data set is classed as ADME, organism-based.
Data set [12] can be described thus: Dissociation constant, pKa of compound. The data set is classed as physicochemical.
Data set [13] relates to Mus musculus. Described as §1. Details: dose 10 mg/kg, time infinity, route oral. The data set is classed as ADME, organism-based. The settings on record: in vivo.
The subject of data set [14] is Mus musculus. Described as §2. In kind it is ADME, organism-based. The settings on record: in vivo.
Data set [15] relates to Mus musculus. Described as §3. In kind it is ADME, organism-based. Details: dose 10 mg/kg, route oral. The settings on record: in vivo.
The test system of data set [16] is Mus musculus. The data set is described as §4. Details: dose 3 mg/kg, time 0 - last, route intravenous. The data set is classed as ADME, organism-based. The settings on record: in vivo.
Data set [17] is described as follows: Ratio of total drug level in brain to plasma in Swiss albino mouse at 10 to 50 mg/kg, po administered as single dose upto 24 hrs by LC-MS/MS analysis. In kind it is ADME, organism-based. The settings on record: read-out: BPR.
In data set [18] the test system is Mus musculus. The data set is described as §6. The settings on record: in vivo. The data set is classed as ADME, organism-based. Details: dose 10 mg/kg, route oral, time 0 - last.
The subject of data set [19] is Mus musculus. The data set is described as §7. In kind it is ADME, organism-based. The settings on record: in vivo.
The nature of data set [20]: Ratio of total drug level in CNS to serum in Swiss albino mouse at 10 to 50 mg/kg, po administered as single dose upto 24 hrs by LC-MS/MS analysis. The data set is classed as ADME, organism-based.
For data set [21], the system named is Mus musculus. The description is as §5. Details: dose 3 mg/kg, time infinity, route intravenous. The data set is classed as ADME, organism-based. The settings on record: in vivo.

SMILES strings stand for the structures.

What is called AUC(0-inf) is total exposure, with the tail of the curve extrapolated. As usually defined, the Tmax is the time from dosing to the highest level. One may read the Cmax as the highest concentration seen after dosing. One may read the Papp as the rate of passage across a membrane or cell layer, normalised by area and donor concentration. In general, AUC(0-t) refers to the area under the concentration-time curve up to a stated or last time point. With `CC(C)(C)n1nc(Cc2cccc(Cl)c2)c2c(N)ncnc21`, the total exposure AUC(0-inf) in data set [1] turned out to be 931 ng·h/mL; in data set [9], 1080 ng·h/mL. In addition, in [2], the Tmax came to 15 min. For the same molecule, the highest concentration (Cmax) in [3] is 585 ng/mL. This molecule also displayed a C0 in data set [4] of 6890 ng/mL. The molecule also registered a F in [5] of 26%. For the same molecule, the Papp is 42.9 ×10⁻⁶ cm/s in [6] and 28.7 ×10⁻⁶ cm/s in [8]. Moreover, the area under the curve AUC(0-t) in [7] stood at 1080 ng·h/mL; in [10], 919 ng·h/mL. Also, in data set [11], the Vd was 1.09 L/kg.
As usually defined, the pKa is the negative logarithm of the acid dissociation constant. High values mean a group that holds its proton tightly, low ones a group that gives up its proton readily. Broadly, the AUC is the area under the concentration-time curve, a measure of exposure. Lower therefore signals less exposure. What is called Vdss is the apparent volume that relates the amount in the body to the concentration in plasma or blood. In [12], `Nc1ncnc2c1c(Oc1cccc(Cl)c1)nn2CC1CCNCC1(F)F` (configuration not stated) displayed a pKa of 7.1. In data set [13], this molecule registered an area under the curve (AUC) of 3547.95 ng·h/mL. Besides, the Tmax in [14] came out at 15 min. This molecule showed a Cmax in data set [15] of 1048.8 ng/mL. In [4], this molecule yielded a C0 of 1210 ng/mL. Also, the Papp was found to be 22.8 ×10⁻⁶ cm/s in data set [6] and 21.2 ×10⁻⁶ cm/s in data set [8]. The AUClast was 975.9 ng·h/mL in [16] and 3058.44 ng·h/mL in [18]. In addition, the values for the Kp at 24 h in [17] and in [20] were 1.3 and 5.6, respectively. This molecule yielded a Vdss in [19] of 3.68 L/kg.
The molecule `CC(C)(C)n1nc(Oc2cccc(Cl)c2)c2c(N)ncnc21` showed an AUC in data set [13] of 1279.2 ng·h/mL. Also, the Tmax in [14] worked out at 15 min. In addition, the Cmax in [15] amounted to 1136.36 ng/mL. In data set [4], this molecule registered a C0 of 5470 ng/mL. Moreover, the Papp in data set [6] was 34.8 ×10⁻⁶ cm/s; in data set [8] it was 30.6 ×10⁻⁶ cm/s. The molecule further came in with an AUClast in data set [18] of 1172.75 ng·h/mL. In [19], this molecule gave a Vdss of 1.1 L/kg.
`Nc1ncnc2c1c(Sc1cccc(Cl)c1)nn2CC1CCNCC1(F)F` (configuration not stated) yielded a pKa in [12] of 7.1. The apparent permeability (Papp) turned out to be 27.1 ×10⁻⁶ cm/s in data set [6] and 25.3 ×10⁻⁶ cm/s in [8].
Consider `Nc1ncnc2c1c(Sc1cccc(Cl)c1)nn2CC1CCNCC1`, for which the pKa in data set [12] came to 10.4. Moreover, the Papp was 2.76 ×10⁻⁶ cm/s in data set [6] and 25.6 ×10⁻⁶ cm/s in [8].
`Nc1ncnc2c1c(Oc1cccc(Cl)c1)nn2CC1CCNCC1` had a pKa in [12] of 10.4. In addition, in data set [13], the exposure (AUC) is 891.24 ng·h/mL. The Tmax in data set [14] was found to be 120 min. In addition, the Cmax in [15] was determined as 182.56 ng/mL. The C0 in data set [4] stood at 536 ng/mL. The Papp in data set [6] was 1.07 ×10⁻⁶ cm/s; in data set [8] it was 9.58 ×10⁻⁶ cm/s. For the same molecule, the AUClast in [16] amounted to 449.57 ng·h/mL; in data set [18], 757.85 ng·h/mL. Further, the Vdss in [19] turned out to be 19.59 L/kg.
With `Cc1cccc(Oc2nn(C(C)(C)C)c3ncnc(N)c23)c1`, the results for the area under the curve (AUC) in [13] and in data set [21] were 91.42 ng·h/mL and 625.04 ng·h/mL, respectively. Besides, the time of peak concentration (Tmax) in data set [14] turned out to be 15 min. Also, the Cmax in data set [15] worked out at 76.69 ng/mL. In [4], this molecule yielded a C0 of 2740 ng/mL. Further, the figures for the Papp in data set [6] and in [8] were 15 ×10⁻⁶ cm/s and 14.6 ×10⁻⁶ cm/s, respectively. Moreover, the AUClast stood at 619.33 ng·h/mL in [16] and 85.47 ng·h/mL in data set [18]. This molecule showed a Vdss in [19] of 2.32 L/kg.
